Reference: patent publication US20250354192A1, “METHODS FOR QUANTIFYING LIVE BACTERIA” (priority 2022, published 2025)

How the values were obtained:
[1] = tested on: Salmonella Typhimurium and Klebsiella pneumoniae; assay: Two-step CLICK labeling with or without EDA, PIPER non-capture assay; format: cell-based; details: 1 mM EDA, last 30 min of incubation; 25 μM CF488 picolyl azide
Experimental: FIG. 7 depicts both components of the two-step CLICK reaction are required for cell labeling. Salmonella Typhimurium (top panel) and Klebsiella pneumoniae (bottom panel) were grown overnight at 37° C. The next day, cells were diluted into fresh media and grown until they reached log-phase. The last 30 min of incubation were carried out in the presence or absence of 1 mM of EDA (D-propargylglycine, AK Scientific, Union City, CA). Cells were harvested by centrifugation (10 min 10,000 g), and supernatant was discarded. Bacteria were then washed, fixed by incubation with 4% paraformaldehyde, pelleted by centrifugation (10 min 10,000 g), and supernatant was discarded. […] An automated bacterial image recognition algorithm determined labeled cell counts (graphs).

[2] = tested on: innate live bacterial populations in whole carcass rinsates; assay: 3-step metabolic labeling of whole carcass rinsates with or without EDA, PIPER; format: cell-based; details: two whole carcass rinsate samples
Experimental: Experimental Detail: Whole carcass rinsate samples were prepared as per FSIS USDA guidance using two separate whole chickens from the grocery store obtained prior to “use by” date. Sodium polyanethol sulfonate was added to 0.05% to limit blood clotting. Prior to 3-step metabolic labeling, an aliquot from each rinsate was removed for serial dilution and plating on APC petrifilm (3M, Saint Paul, MN) and incubated as per manufacturer instructions to evaluate the number of total viable bacteria by the “gold standard” method. 1 mL rinsate aliquots were used for incubation with, or without EDA, as a control for non-specific staining with the fluorophore. The 1st step of labeling was carried out by adding 5 μg/mL chloramphenicol and 1 mM EDA, where indicated, followed by 90 min incubation at 37° C. […]
FIG. 25 depicts how 3-step metabolic labeling detects innate live bacterial populations in whole carcass rinsates. FIG. 25A depicts PIPER images of innate populations of live bacteria detected by 3-step metabolic labeling in two separate whole carcass rinsate samples. […] To convert the PIPER counts into the number of live bacteria per swab, the values were corrected for the volume of the viewing window relative to the total sample volume loaded into the cartridge lane, and the fraction of the total sample volume analyzed.

SMILES: C#CC[C@@H](N)C(=O)O [EDA, D-propargylglycine]
- signal of click labeling in the presence or absence of EDA [1]: No signal is observed when the click reagents are added in the absence of EDA
- signal on omitting EDA from the 1st step of labeling [2]: dramatic reduction of the signal
